{
  "source": "ChEMBL document CHEMBL1159233",
  "about": "“Antitumor agents, 154. Cytotoxic and antimitotic flavonols from Polanisia dodecandra” (J Nat Prod, 1995)",
  "key": {"[1]": {"assay": "Displacement of [3H]colchicine from tubulin at 5 uM"}, "[2]": {"assay": "Inhibition of tubulin polymerization"}, "[3]": {"assay": "Displacement of [3H]colchicine from tubulin at 50 uM"}, "KB": {"tested_on": "KB", "assay": "Cytotoxicity against human KB cells", "format": "functional", "conditions": "read-out: ED50 (the source's name)"}, "A549": {"tested_on": "A549", "assay": "Cytotoxicity against human A549 cells", "format": "functional"}, "HCT-8": {"tested_on": "HCT-8", "assay": "Cytotoxicity against human HCT8 cells", "format": "functional"}, "P388": {"tested_on": "P388", "assay": "Cytotoxicity against mouse P388 cells", "format": "functional", "conditions": "read-out: ED50 (the source's name)"}, "[4]": {"assay": "Cytotoxicity against human PRMI7951 cells", "format": "functional", "conditions": "read-out: ED50 (the source's name)"}, "TE-671": {"tested_on": "TE-671", "assay": "Cytotoxicity against human TE671 cells", "format": "functional", "conditions": "read-out: ED50 (the source's name)"}, "HL-60(TB)": {"tested_on": "HL-60(TB)", "assay": "Growth inhibition of human HL-60(TB) cells", "format": "functional"}, "SR": {"tested_on": "SR", "assay": "Growth inhibition of human SR cells", "format": "functional"}, "HOP-62": {"tested_on": "HOP-62", "assay": "Growth inhibition of human HOP62 cells", "format": "functional"}, "NCI-H226": {"tested_on": "NCI-H226", "assay": "Growth inhibition of human NCI-H226 cells", "format": "functional"}, "NCI-H460": {"tested_on": "NCI-H460", "assay": "Growth inhibition of human NCI-H460 cells", "format": "functional"}, "NCI-H522": {"tested_on": "NCI-H522", "assay": "Growth inhibition of human NCI-H522 cells", "format": "functional"}, "[5]": {"assay": "Growth inhibition of human DMS144 cells", "format": "functional"}, "HCT-116": {"tested_on": "HCT-116", "assay": "Growth inhibition of human HCT116 cells", "format": "functional"}, "SF-268": {"tested_on": "SF-268", "assay": "Growth inhibition of human SF268 cells", "format": "functional"}, "SF-539": {"tested_on": "SF-539", "assay": "Growth inhibition of human SF539 cells", "format": "functional"}, "SNB-75": {"tested_on": "SNB-75", "assay": "Growth inhibition of human SNB75 cells", "format": "functional"}, "U-251": {"tested_on": "U-251", "assay": "Growth inhibition of human U251 cells", "format": "functional"}, "SK-MEL-5": {"tested_on": "SK-MEL-5", "assay": "Growth inhibition of human SK-MEL-5 cells", "format": "functional"}, "OVCAR-3": {"tested_on": "OVCAR-3", "assay": "Growth inhibition of human OVCAR-3 cells", "format": "functional"}, "SK-OV-3": {"tested_on": "SK-OV-3", "assay": "Growth inhibition of human SKOV3 cells", "format": "functional"}, "UO-31": {"tested_on": "UO-31", "assay": "Growth inhibition of human UO31 cells", "format": "functional"}, "[6]": {"conditions": "read-out: ED50 (the source's name)"}},
  "note": "Active and inactive are the calls of the source. The calls are words filed in the database; no cut-off is given here.",
  "data": [
    {"smiles": "COc1cc([C@@H]2c3cc4c(cc3[C@H](O)[C@H]3COC(=O)[C@H]23)OCO4)cc(OC)c1OC", "values": [
      {"measurement": "Activity", "setting": "[1]", "result": 82, "unit": "%"}
    ]},
    {"smiles": "COc1ccc(-c2oc3cc(O)c(OC)c(O)c3c(=O)c2OC)cc1O", "note": "[CENTAUREIDIN]", "values": [
      {"measurement": "IC50", "setting": "[2]", "result": 2000, "unit": "nM"},
      {"measurement": "Activity", "setting": "[1]", "result": 35, "unit": "%"},
      {"measurement": "Activity", "setting": "[3]", "result": 76, "unit": "%"}
    ]},
    {"smiles": "COc1ccc(-c2oc3c(OC)c(OC)c(OC)c(O)c3c(=O)c2OC)cc1O", "values": [
      {"measurement": "EC50", "setting": "KB", "result": 0.045, "unit": "µg/mL"},
      {"measurement": "EC50", "setting": "A549; [6]", "result": 0.6, "unit": "µg/mL"},
      {"measurement": "EC50", "setting": "HCT-8; [6]", "result": 4.4, "unit": "µg/mL"},
      {"measurement": "EC50", "setting": "P388", "result": 0.055, "unit": "µg/mL"},
      {"measurement": "EC50", "setting": "[4]", "result": 0.55, "unit": "µg/mL"},
      {"measurement": "EC50", "setting": "TE-671", "result": 0.069, "unit": "µg/mL"},
      {"measurement": "GI50", "setting": "HL-60(TB)", "result": "< 10", "unit": "nM"},
      {"measurement": "TGI", "setting": "HL-60(TB); read-out: pTGI", "result": "< 10", "unit": "nM"},
      {"measurement": "GI50", "setting": "SR", "result": "< 10", "unit": "nM"},
      {"measurement": "TGI", "setting": "SR; read-out: pTGI (converted)", "result": 112, "unit": "nM"},
      {"measurement": "GI50", "setting": "HOP-62", "result": 47.9, "unit": "nM"},
      {"measurement": "TGI", "setting": "HOP-62; read-out: pTGI (converted)", "result": 4790, "unit": "nM"},
      {"measurement": "GI50", "setting": "NCI-H226", "result": 61.7, "unit": "nM"},
      {"measurement": "TGI", "setting": "NCI-H226; read-out: pTGI (converted)", "result": 363, "unit": "nM"},
      {"measurement": "GI50", "setting": "NCI-H460", "result": "< 10", "unit": "nM"},
      {"measurement": "TGI", "setting": "NCI-H460; read-out: pTGI (converted)", "result": 138, "unit": "nM"},
      {"measurement": "GI50", "setting": "NCI-H522", "result": "< 10", "unit": "nM"},
      {"measurement": "TGI", "setting": "NCI-H522; read-out: pTGI", "result": "< 10", "unit": "nM"},
      {"measurement": "GI50", "setting": "[5]", "result": "< 10", "unit": "nM"},
      {"measurement": "TGI", "setting": "[5]; read-out: pTGI", "result": "< 10", "unit": "nM"},
      {"measurement": "GI50", "setting": "HCT-116", "result": "< 10", "unit": "nM"},
      {"measurement": "TGI", "setting": "HCT-116; read-out: pTGI (converted)", "result": 123, "unit": "nM"},
      {"measurement": "GI50", "setting": "SF-268", "result": "< 10", "unit": "nM"},
      {"measurement": "TGI", "setting": "SF-268; read-out: pTGI (converted)", "result": 2820, "unit": "nM"},
      {"measurement": "GI50", "setting": "SF-539", "result": "< 10", "unit": "nM"},
      {"measurement": "TGI", "setting": "SF-539; read-out: pTGI", "result": "< 10", "unit": "nM"},
      {"measurement": "GI50", "setting": "SNB-75", "result": "< 10", "unit": "nM"},
      {"measurement": "TGI", "setting": "SNB-75; read-out: pTGI", "result": "< 10", "unit": "nM"},
      {"measurement": "GI50", "setting": "U-251", "result": "< 10", "unit": "nM"},
      {"measurement": "TGI", "setting": "U-251; read-out: pTGI (converted)", "result": 229, "unit": "nM"},
      {"measurement": "GI50", "setting": "SK-MEL-5", "result": "< 10", "unit": "nM"},
      {"measurement": "TGI", "setting": "SK-MEL-5; read-out: pTGI (converted)", "result": 1000, "unit": "nM"},
      {"measurement": "GI50", "setting": "OVCAR-3", "result": "< 10", "unit": "nM"},
      {"measurement": "TGI", "setting": "OVCAR-3; read-out: pTGI", "result": "< 10", "unit": "nM"},
      {"measurement": "GI50", "setting": "SK-OV-3", "result": "< 10", "unit": "nM"},
      {"measurement": "TGI", "setting": "SK-OV-3; read-out: pTGI (converted)", "result": 417, "unit": "nM"},
      {"measurement": "GI50", "setting": "UO-31", "result": "< 10", "unit": "nM"},
      {"measurement": "TGI", "setting": "UO-31; read-out: pTGI (converted)", "result": 5750, "unit": "nM"},
      {"measurement": "IC50", "setting": "[2]", "result": 830, "unit": "nM"},
      {"measurement": "Activity", "setting": "[1]", "result": 59, "unit": "%"},
      {"measurement": "Activity", "setting": "[3]", "result": 89, "unit": "%"}
    ]},
    {"smiles": "COc1cc(-c2oc3c(OC)c(OC)c(OC)c(O)c3c(=O)c2OC)ccc1O", "values": [
      {"measurement": "EC50", "setting": "KB", "result": 8.38, "unit": "µg/mL"},
      {"measurement": "Activity", "setting": "A549", "result": "inactive"},
      {"measurement": "Activity", "setting": "HCT-8", "result": "inactive"},
      {"measurement": "EC50", "setting": "P388", "result": 6.52, "unit": "µg/mL"},
      {"measurement": "EC50", "setting": "[4]", "result": 5.93, "unit": "µg/mL"},
      {"measurement": "EC50", "setting": "TE-671", "result": 0.98, "unit": "µg/mL"}
    ]}
  ]
}
